Each structure is given as a SMILES string.

The target of this experiment is T1, recombinant IL-8 Rβ, or Type II, receptor (Homo sapiens, UniProt P25025).
T1 sequence (P25025 1-360): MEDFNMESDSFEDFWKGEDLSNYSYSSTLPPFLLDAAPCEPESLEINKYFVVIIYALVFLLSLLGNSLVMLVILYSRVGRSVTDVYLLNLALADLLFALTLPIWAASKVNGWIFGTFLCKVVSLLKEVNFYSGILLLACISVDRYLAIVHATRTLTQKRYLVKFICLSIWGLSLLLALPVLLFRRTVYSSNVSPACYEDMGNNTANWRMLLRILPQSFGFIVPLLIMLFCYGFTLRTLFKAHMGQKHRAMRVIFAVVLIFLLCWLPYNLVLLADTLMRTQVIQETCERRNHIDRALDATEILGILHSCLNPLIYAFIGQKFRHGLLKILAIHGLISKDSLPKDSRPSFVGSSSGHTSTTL
Kind of experiment: Receptor binding assay, 125I IL-8, IL-8Rβ CHO membranes (permissive model). The text has this:
[^125 I] IL-8 (human recombinant) was obtained from Amersham Corp., Arlington Heights, Ill., with specific activity 2000 Ci/mmol. Gro-α was obtained from NEN-New England Nuclear. All other chemicals were of analytical grade. High levels of recombinant human IL-8 type α and β receptors were individually expressed in Chinese hamster ovary cells as described previously (Holmes, et al., Science, 1991, 253, 1278). The Chinese hamster ovary membranes were homogenized according to a previously described protocol (Haour, et al., J Biol Chem., 249 pp 2195-2205 (1974)). Except that the homogenization buffer was changed to 10 mM Tris-HCL, 1 mM MgS04, 0.5 mM EDTA (ethylene-diaminetetra-acetic acid), 1 mMPMSF (α-toluenesulphonyl fluoride), 0.5 mg/L Leupeptin, pH 7.5. Membrane protein concentration was determined using Pierce Co. micro-assay kit using bovine serum albumin as a standard. All assays were performed in a 96-well micro plate format. Each reaction mixture contained ^125 I IL-8 (0.25 nM) or ^125 I Gro-α and 0.5 μg/mL of IL-8Rα or 1.0 μg/mL or IL-8Rβ membranes in 20 mM Bis-Trispropane and 0.4 mM Tris HCl buffers, pH 8.0, containing 1.2 mM MgSO4, 0.1 mM EDTA, 25 mM NaCl and 0.03% CHAPS. […] The filter was then dried and counted on the Betaplate liquid scintillation counter. […]

With `Cc1cc(Cl)ccc1NC(=O)Nc1ccccc1C(=O)O` [1-(2-Carboxyphenyl)-3-(4-chloro-2-methylphenyl)urea], the “found to be active at (IL-8 receptor inhibition)” value is recorded as “about 75 μg/mL”.

The record behind these values is US6005008A, “IL-8 receptor antagonists” (SmithKline Beecham Corporation, priority 1997, dated 1999).
